Results as given in paper PMC12261219, “Comparative Evaluation of Thiol- and Amine-Conjugating Moieties for Endogenous Albumin Binding after Intravenous Administration” (ACS Pharmacology & Translational Science, 2025).
Values joined by “and” are separate entries in the source; they are usually repeats but may differ in a detail not shown here. Equal values may be shown once.

Legend:
albumin = biological target: T1, albumin (Homo sapiens, UniProt P02768); assay: SEC-ICP-MS with single serum protein solution: albumin; assay type: binding; settings: 200 μM albumin, 100 μM compound, 100 mM PB pH 7.4, 37 °C, 2 h
T1 construct: purchased Sigma-Aldrich A8763
Protocol: (§1) All investigated proteins were purchased from commercial suppliers: Albumin (Sigma-Aldrich, A8763), IgG (Athens Research, 16–16–090707), α1-antitrypsin (Sigma-Aldrich, A6150) and apotransferrin (Sigma-Aldrich, T1147). […] The compound stocks were diluted into the protein solution to reach a final concentration of 100 μM (27 μL protein and 3 μL compound). The samples were incubated at 37 °C for 2 h and analyzed as described for the SEC-ICP-MS studies (Tables S6 and S7).

albumin (human serum) = biological target: T2, albumin (human serum) (Homo sapiens, UniProt P02768); assay: SEC-ICP-MS albumin binding in human serum; assay type: in vitro ADME; settings: for Pt195 in HMWF (albumin-bound) / Pt195 in LMWF: 100 µM, 37 °C
T2 construct: Human serum was purchased from Sigma-Aldrich; tissue Sigma-Aldrich; host or cells: human serum
Protocol: (§2) Blood of Bab/c mice was collected under anesthesia via heart puncture. […] Human serum was purchased from Sigma-Aldrich. In order to guarantee a stable pH, all sera were buffered with 150 mM phosphate to pH 7.4 by dissolving the necessary amounts of Na2HPO4 and NaH2PO4 directly in the serum. […] The samples were then incubated in the autosampler at 37 °C and analyzed every hour for 4 or 5 h and after 24 h. Between each sample a pure water blank was measured. For measurements with 10 min intervals the same procedure was followed, but the blank measurements were omitted. For SEC-ICP-MS measurements an Agilent 1260 Infinity system coupled to an Agilent 7800 ICP-HRMS equipped with a dynamic reaction cell was used. Oxygen (purity 5.5, Messer Austria GmbH, Gumpoldskirchen, Austria) was used as reaction gas.

[1] = Hydrolytic stability in buffer (HPLC); assay type: physicochemical; settings: 0.5 mM
Protocol: The samples were incubated at 20 °C and measured over 25 h. Reversed phase high-performance liquid chromatography (RP-HPLC) runs were performed using a Waters Acquity UPLC BEH C18 column (130 Å, 1.7 μm, 3 mm × 50 mm) on a Dionex Thermo Scientific UltiMate 3000 HPLC system, equipped with a HPG-3400RS binary pump and a DAD-3000 UV–vis detector. Chromatograms were evaluated at a wavelength of 220 nm. Milli-Q water (mobile phase A) and acetonitrile (mobile phase B), both containing 0.1% TFA, were used as eluents. The flow rate was consistent at 0.6 mL/min for all measurements using the following gradient: 0–0.5 min A 95:5 B, 0.5–5.5 min linear gradient to A 5:95 B, 5.5–6.5 min A 5:95 B, 6.5–9.2 min A 95:5 B. The same conditions were applied for stability measurements in 100 mM PB at pH 5.5 and 6.5 as well as in 20 mM HEPES and MOPS at pH 7.4. RP-HPLC-MS analyses of the same samples after the stability measurements were conducted on a Waters Acquity UPLC BEH C18 column (130 Å, 1.7 μm, 3 mm × 50 mm) on an Agilent 1260 Infinity II system equipped with a Flexible pump, a 1260 VWD UV–vis detector and the LC–MSD system. Chromatograms were evaluated at a wavelength of 220 nm. Milli-Q water (mobile phase A) and acetonitrile (mobile phase B), both containing 0.1% formic acid, were used as eluents. The flow rate was consistent at 0.6 mL/min for all measurements using the following gradient: 0–0.5 min A 95:5 B, 0.5–6.0 min linear gradient to A 5:95 B, 6.0–7.0 min A 5:95 B, 7.0–7.1 min linear gradient to A 95:5 B, 7.1–8.0 min A 95:5 B.

α1-antitrypsin = biological target: T3, α1-antitrypsin (Homo sapiens, UniProt P01009); assay: SEC-ICP-MS with single serum protein solution: α1-antitrypsin; assay type: binding; settings: 200 μM α1-antitrypsin, 100 μM compound, 100 mM PB pH 7.4, 37 °C, 2 h
T3 construct: purchased Sigma-Aldrich A6150
Protocol: as §1

[2] = Serum pharmacokinetics (platinum, ICP-MS) in CT26-bearing Balb/c mice
Protocol: CT26 cells (5 × 10^5 in 50 μL serum-free medium) were injected subcutaneously (s.c.) into the right flank of male Balb/c mice. […] The blood, tumor and organ collection followed the study design in Figure A. Briefly, to assess serum platinum levels, blood was collected after 5 min, 30 min, 5 h and 24 h (2 mice per time point) via the facial vein. The serum was separated by centrifugation (two times 10 min at 900 g) after 10 min clotting at room temperature. […] All collected samples were stored at −20 °C and further processed for platinum measurements via ICP-MS as follows: HNO3 (67–69%, suprapur for trace metal analysis, NORMATOM; Distributor: VWR international, Austria) and conc. H2O2 suprapur (Merck, 30%) were used without further purification. Digestion of tissue (approximately 15–30 mg gravimetrically weighted) was performed with 2 mL of approximately 20% HNO3 and 100 μL H2O2 using an open vessel graphite digestion system (coated graphite heating plate, coated sample holder-top for 25 mL vials, PFA vials and PFA lids; Labter, ODLAB; Distributor: AHF Analysentechnik AG; Germany). Digested samples were diluted in Milli-Q water (18.2 MΩ cm, Milli-Q Advantage, Darmstadt, Germany). For the ICP-MS analysis, platinum and rhenium standards were derived from CPI International (Amsterdam, The Netherlands). The total platinum content was determined with a quadrupole-based Agilent 7800 ICP-MS instrument (Agilent Technologies, Tokyo, Japan) equipped with the Agilent SPS 4 autosampler (Agilent Technologies, Tokyo, Japan) and a MicroMist nebulizer at a sample uptake rate of approximately 0.2 mL/min. An RF power of 1550 W was used as well as nickel cones. Argon was used as plasma gas (15 L/min) and as carrier gas (∼1.1 L/min). The dwell time was set to 0.1 s and the measurements were performed in 6 replicates with 100 sweeps. Rhenium served as internal standard for platinum. The Agilent MassHunter software package (Workstation Software, version C.01.04) was used for data processing.
As platinum was measured in serum, equimolar administered doses were adjusted to correspond to platinum (0.0227 mmol, 4.42 mg platinum). The area under the “concentration”–time curve (AUC) was determined from time 0 to infinity (AUCPt_0‑∞) and from time 0 to 24 h (AUCPt_0–24, based on the last observed sample at 24 h; linear-log trapezoidal calculation method). The terminal slope (λ z ) was determined based on the last two (out of four) measurements (times 5 h and 24 h).

albumin (mouse serum) = biological target: T4, albumin (mouse serum) (Mus musculus, UniProt P07724); assay: SEC-ICP-MS albumin binding in mouse serum; assay type: in vitro ADME; settings: 100 µM, 37 °C
T4 construct: The serum was separated by centrifugation (two times 10 min at 900 g) after 10–20 min clotting at room temperature; from tissue; host or cells: serum of Balb/c mice
Protocol: as §2

apotransferrin = biological target: T5, apotransferrin (Homo sapiens, UniProt P02787); assay: SEC-ICP-MS with single serum protein solution: apotransferrin; assay type: binding; settings: 200 μM apotransferrin, 100 μM compound, 100 mM PB pH 7.4, 37 °C, 2 h
T5 construct: purchased Sigma-Aldrich T1147
Protocol: as §1

IgG = assay: SEC-ICP-MS with single serum protein solution: IgG; assay type: binding, human; settings: 200 μM IgG, 100 μM compound, 100 mM PB pH 7.4, 37 °C, 2 h
Protocol: as §1

[3] = pH 7.4, 10 min intervals, 0 min
[4] = pH 7.4, 10 min intervals, 10 min
[5] = pH 7.4, 10 min intervals, 20 min
[6] = pH 7.4, 10 min intervals, 30 min
[7] = pH 7.4, 10 min intervals, 40 min
[8] = pH 7.4, 10 min intervals, 50 min
[9] = pH 7.4, 10 min intervals, 60 min

T2 sequence (P02768 25-609): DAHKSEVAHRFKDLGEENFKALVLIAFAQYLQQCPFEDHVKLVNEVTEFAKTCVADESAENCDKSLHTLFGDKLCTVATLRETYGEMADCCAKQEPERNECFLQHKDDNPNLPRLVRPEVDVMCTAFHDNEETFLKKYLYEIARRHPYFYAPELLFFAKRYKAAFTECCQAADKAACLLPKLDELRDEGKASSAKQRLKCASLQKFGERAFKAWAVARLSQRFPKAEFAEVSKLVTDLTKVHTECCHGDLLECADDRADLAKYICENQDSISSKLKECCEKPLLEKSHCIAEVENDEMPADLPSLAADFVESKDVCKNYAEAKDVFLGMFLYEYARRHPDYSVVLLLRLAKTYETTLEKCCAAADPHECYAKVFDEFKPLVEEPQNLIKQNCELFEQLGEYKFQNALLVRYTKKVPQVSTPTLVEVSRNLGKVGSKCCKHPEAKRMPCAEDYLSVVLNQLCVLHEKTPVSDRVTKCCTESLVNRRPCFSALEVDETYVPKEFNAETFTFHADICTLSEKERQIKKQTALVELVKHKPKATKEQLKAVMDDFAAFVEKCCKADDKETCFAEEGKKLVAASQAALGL
T4 sequence (P07724 25-608): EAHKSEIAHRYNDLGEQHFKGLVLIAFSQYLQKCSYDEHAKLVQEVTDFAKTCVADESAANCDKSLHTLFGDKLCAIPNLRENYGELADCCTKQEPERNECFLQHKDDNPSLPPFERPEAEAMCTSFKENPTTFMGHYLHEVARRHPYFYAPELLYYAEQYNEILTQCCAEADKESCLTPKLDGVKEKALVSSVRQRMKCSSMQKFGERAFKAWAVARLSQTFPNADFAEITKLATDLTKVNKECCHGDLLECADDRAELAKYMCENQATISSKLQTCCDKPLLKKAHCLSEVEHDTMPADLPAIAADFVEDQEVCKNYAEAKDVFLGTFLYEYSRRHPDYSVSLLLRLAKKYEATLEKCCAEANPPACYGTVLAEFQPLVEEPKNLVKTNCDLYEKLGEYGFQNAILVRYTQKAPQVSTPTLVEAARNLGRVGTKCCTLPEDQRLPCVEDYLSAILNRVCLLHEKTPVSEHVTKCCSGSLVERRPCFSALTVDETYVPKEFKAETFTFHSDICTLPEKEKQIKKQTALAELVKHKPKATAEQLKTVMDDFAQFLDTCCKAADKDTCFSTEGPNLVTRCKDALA
T5 sequence (P02787 20-698): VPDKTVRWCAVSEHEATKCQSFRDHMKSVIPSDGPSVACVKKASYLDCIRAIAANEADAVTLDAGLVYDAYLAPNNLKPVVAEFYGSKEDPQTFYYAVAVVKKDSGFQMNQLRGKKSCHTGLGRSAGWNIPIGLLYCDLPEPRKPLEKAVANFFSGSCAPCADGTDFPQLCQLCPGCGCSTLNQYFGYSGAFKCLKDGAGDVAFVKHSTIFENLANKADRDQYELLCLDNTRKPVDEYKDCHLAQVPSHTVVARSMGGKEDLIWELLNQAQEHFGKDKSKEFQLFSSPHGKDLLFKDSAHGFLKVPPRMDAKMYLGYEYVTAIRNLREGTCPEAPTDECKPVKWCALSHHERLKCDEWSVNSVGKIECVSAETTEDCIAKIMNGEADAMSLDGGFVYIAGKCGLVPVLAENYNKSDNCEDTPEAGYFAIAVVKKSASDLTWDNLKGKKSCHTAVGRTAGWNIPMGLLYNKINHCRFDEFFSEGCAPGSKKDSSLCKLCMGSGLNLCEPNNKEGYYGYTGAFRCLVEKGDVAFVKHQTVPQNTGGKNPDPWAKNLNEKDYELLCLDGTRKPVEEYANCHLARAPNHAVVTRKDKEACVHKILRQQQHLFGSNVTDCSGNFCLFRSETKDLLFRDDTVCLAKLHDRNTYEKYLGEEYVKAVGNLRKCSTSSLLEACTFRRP
T1 sequence (P02768 25-609): as the sequence (P02768 25-609) above
T3 sequence (P01009 25-418): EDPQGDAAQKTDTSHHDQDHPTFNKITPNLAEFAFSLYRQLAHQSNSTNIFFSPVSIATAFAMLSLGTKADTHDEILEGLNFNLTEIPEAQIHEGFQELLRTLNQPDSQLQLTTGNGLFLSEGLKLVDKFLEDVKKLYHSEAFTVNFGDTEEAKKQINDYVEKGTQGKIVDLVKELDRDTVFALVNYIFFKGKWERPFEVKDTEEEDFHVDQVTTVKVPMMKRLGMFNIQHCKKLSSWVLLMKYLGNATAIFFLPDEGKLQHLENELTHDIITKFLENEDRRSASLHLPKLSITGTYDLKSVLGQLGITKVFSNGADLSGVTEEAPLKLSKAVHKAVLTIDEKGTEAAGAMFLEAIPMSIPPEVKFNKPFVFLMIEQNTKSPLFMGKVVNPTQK

## CC(=O)[O][Pt-2]12([O]C(=O)NCCOCCOCCOCCOc3ccc(-c4nnc(S(C)(=O)=O)o4)cc3)([NH2+][C@@H]3CCCC[C@H]3[NH2+]1)[O]C(=O)C(=O)[O]2 [PODS-Ox-OAc, (OC-6–34)-Acetato[(1R,2R)-1,2-cyclohexane-1,2-diamino][(2-(2-(2-(2-(4-(5-(methylsulfonyl)-1,3,4-oxadiazol-2-yl)-phenoxy)-ethoxy)-ethoxy)-ethoxy)-ethyl)-carbamato]-oxalato platinum(IV)]
albumin
  Platinum in the HMWF (protein-bound): 69%
Albumin (human serum); pH 7.4, 0 h
  Pt195 in HMWF (albumin-bound): 2% and < 5%
  Pt195 in LMWF: 98%
Albumin (human serum); pH 7.4, 1 h
  Pt195 in HMWF (albumin-bound): 87% and ~90%
  Pt195 in LMWF: 13%
Albumin (human serum); pH 7.4, 2 h
  Pt195 in HMWF (albumin-bound): 91%
  Pt195 in LMWF: 9%
Albumin (human serum); pH 7.4, 3 h
  Pt195 in HMWF (albumin-bound): 92%
  Pt195 in LMWF: 8%
Albumin (human serum); pH 7.4, 4 h
  Pt195 in HMWF (albumin-bound): 92%
  Pt195 in LMWF: 8%
Albumin (human serum); pH 7.4, 5 h
  Pt195 in HMWF (albumin-bound): 92%
  Pt195 in LMWF: 8%
Albumin (human serum); pH 7.4, 24 h
  Pt195 in HMWF (albumin-bound): 92%
  Pt195 in LMWF: 8%
Albumin (human serum); from 1 to 24 h
  Bound to albumin: ~90%
[1]; 20 mM HEPES, pH 7.4, 20 °C
  Intact compound after 25 h: 54%
[1]; 20 mM MOPS, pH 7.4, 20 °C
  Intact compound after 25 h: 76%
[1]; 100 mM PB, pH 5.5, 20 °C
  Intact compound after 25 h: 99%
[1]; 100 mM PB, pH 6.5, 20 °C
  Intact compound after 25 h: 94%
[1]; 100 mM PB, pH 7.4, 20 °C
  Intact compound after 25 h: 70%
α1-antitrypsin
  Platinum in the HMWF (protein-bound): ~30%
[2]; at 5 and 30 min, i.v.
  Serum platinum level higher than after Mal-Ox-OAc treatment: about 50%
[2]; serum platinum, measured at tmax=0.08 h, single i.v. dose 4.42 mg/kg Pt
  Cmax: 52.5 mg/kg
[2]; serum platinum, tlast=24 h
  Percentage of AUCPt_0-∞ extrapolated from tlast to infinity: 25.5%
[2]; terminal half-life, serum platinum, i.v.
  Half-life: 13.6 h
[2]; total body clearance, serum platinum, single i.v. dose 4.42 mg/kg Pt
  CL: 0.00693 kg/h/kg
[2]; volume of distribution based on the terminal phase, serum platinum, i.v.
  Vz: 0.136 kg/kg
Albumin (mouse serum); [3]
  Pt195 in HMWF (albumin-bound): 34%
  Pt195 in LMWF: 66%
Albumin (mouse serum); [4]
  Pt195 in HMWF (albumin-bound): 59% and ~60%
  Pt195 in LMWF: 41%
Albumin (mouse serum); [5]
  Pt195 in HMWF (albumin-bound): 71%
  Pt195 in LMWF: 29%
Albumin (mouse serum); [6]
  Pt195 in HMWF (albumin-bound): 78%
  Pt195 in LMWF: 22%
Albumin (mouse serum); [7]
  Pt195 in HMWF (albumin-bound): 83%
  Pt195 in LMWF: 17%
Albumin (mouse serum); [8]
  Pt195 in HMWF (albumin-bound): 85%
  Pt195 in LMWF: 15%
Albumin (mouse serum); [9]
  Pt195 in HMWF (albumin-bound): 87%
  Pt195 in LMWF: 13%
Albumin (mouse serum); pH 7.4, 1 h intervals, 0 h
  Pt195 in HMWF (albumin-bound): 30%
  Pt195 in LMWF: 70%
Albumin (mouse serum); pH 7.4, 1 h intervals, 1 h
  Pt195 in HMWF (albumin-bound): 82% and ~80%
  Pt195 in LMWF: 18%
Albumin (mouse serum); pH 7.4, 1 h intervals, 2 h
  Pt195 in HMWF (albumin-bound): 80%
  Pt195 in LMWF: 20%
Albumin (mouse serum); pH 7.4, 1 h intervals, 3 h
  Pt195 in HMWF (albumin-bound): 80%
  Pt195 in LMWF: 20%
Albumin (mouse serum); pH 7.4, 1 h intervals, 4 h
  Pt195 in HMWF (albumin-bound): 79%
  Pt195 in LMWF: 21%
Albumin (mouse serum); pH 7.4, 1 h intervals, 24 h
  Pt195 in HMWF (albumin-bound): 80%
  Pt195 in LMWF: 20%
apotransferrin
  Platinum in the HMWF (protein-bound): less than 10%
IgG
  Platinum in the HMWF (protein-bound): less than 20%
